What was measured:
Type in all cases: in vivo
[1] = system: CatG; experiment: Bone marrow CatG activity after repeated dosing, BALB/c mice; conditions: for Reduction of CatG activity vs vehicle / Change From Vehicle Control (%) CatG: 7 days
Experimental: (§1) Briefly, animals were weighed and randomized into different treatment groups. In total, three different dosing levels of brensocatib were tested in each species and strain; each QD dosing level was equivalent to 1.5-times the matching daily BID dose. For BID dosing, the second daily dose was administered 8-h post the morning dose. C57BL/6 mice were dosed either BID or QD for 7 consecutive days at 0/0, 0.5/0.75, 2/3, and 20/30 mg/kg/day (BID/QD). BALB/c mice were dosed for 7 consecutive days at 0/0, 0.2/0.3, 2/3, and 20/30 mg/kg/day (BID/QD). SD rats were dosed for 9 consecutive days at 0/0, 0.2/0.3, 2/3, and 20/30 mg/kg/day (BID/QD). Wistar rats were dosed for 7 consecutive days at 0/0, 0.2/0.3, 2/3, and 20/30 mg/kg/day (BID/QD).
(§2) At the completion of the study, animals were sacrificed 16–24 h post their final dose. The hind limb bones (femurs and tibias) were collected at necropsy for bone marrow analysis of NSP activities by kinetic enzymatic assays ([Basso et al., 2022]). See section Quantification of Bone Marrow NSP Activities for details.
(§3) For the mice, each animal had the femurs and tibias of both hind limbs harvested. For the rat, the femur and tibia from a single hind limb per animal was harvested. Bones were kept on wet ice until processing for bone marrow collection. In brief, bone cutters were used to cut the epiphysis (knobby ends) off the long bones to expose the bone marrow filled cavity. Each bone cavity was then flushed with 5 mL/bone (mouse) or 10 mL/bone (rat) of ice-cold RPMI media through a […] and collected in a 50-mL conical tube. Cells were spun down at 2,500 × g at 4°C for 5 min and the supernatant was aspirated. After which, bone marrow cells were lysed with 1X red blood cell (RBC) lysis buffer (Abcam, ab204733) to eliminate contaminating RBCs and washed with PBS to remove any residual RBC lysis buffer. The resulting white blood cells (WBC) were subsequently lysed with 1% (v/v) Triton X-100 in PBS. Lysates were added to 96-well plates and stored at −80°C until NSP analyses.
(§4) Bone marrow lysates prepared as described above were diluted and plated onto 96-well assay plates to quantify NSP activities as described previously ([Basso et al., 2022]). Briefly, peptide substrates for NE (N-Methoxysuccinyl-Ala-Ala-Pro-Val-7-amido-4-methylcoumarin; Sigma; St. Louis, MO; Excitation/Emission at 350/450 nm), PR3 ((7-Methoxycoumarin-4-yl)acetyl-lysyl-(picolinoyl)-Tyr-Asp-Ala-Lys-Gly-Asp-N-3-(2-4-dinitrophenyl)-2-3-diaminopropyonyl-NH2); GenScript; Piscataway, NJ; Excitation/Emission at 340/430 nm), and CatG (N-Succinyl-Ala-Ala-Pro-Phe p nitroanilide; Sigma; Absorbance at 405 nm) were added at a final assay concentration of 100 μM, 40 μM, and 200 μM, respectively, and either fluorescence or absorbance was quantified using a Synergy microplate reader (BioTek; Winooski, VT). The specific NSP activity in each sample was calculated as the total activity minus the activity in the presence of a specific NSP inhibitor (if used), including elastase inhibitor (Abcam) for NE, sivelestat (Abcam) for PR3, and cathepsin G inhibitor I (Cayman Chemical; Ann Arbor, MI) for CatG. NSP concentrations were interpolated based on their activities relative to the standard curves created using active human NE protein (Sigma), active human PR3 protein (Sigma), and active human CatG protein (Sigma), respectively. Due to unavailability of commercial mouse and/or rat NE, PR3, and CatG proteins, the corresponding human proteins were used instead since their catalytic ability is considered to be conserved across species. A portion of each cell lysate sample was retained for protein quantification using a Pierce™ BCA Protein Assay Kit (Thermo Fisher). The NSP activities were normalized for the cell lysate protein concentrations.
(§5) The Pierce™ BCA Protein Assay Kit was used to measure the total protein of the samples after lysis to allow for subsequent normalization. […]

[2] = system: PR3; experiment: Bone marrow PR3 activity after repeated dosing, Sprague Dawley rats; conditions: for Reduction of PR3 activity vs vehicle / Change From Vehicle Control (%) PR3: 9 days
Experimental: as §1, §2, §3, §4, §5

[3] = system: CatG; experiment: Bone marrow CatG activity after repeated dosing, Sprague Dawley rats; conditions: for Reduction of CatG activity vs vehicle / Change From Vehicle Control (%) CatG: 9 days
Experimental: as §1, §2, §3, §4, §5

[4] = BID highest dose (20 mg/kg/day)
[5] = highest dose level 20/30 (BID/QD) mg/kg/day

**Q.** With `Cn1c(=O)oc2ccc(-c3ccc(C[C@@H](C#N)NC(=O)[C@@H]4CNCCCO4)cc3)cc21` [brensocatib] as the molecule, how does the “Reduction of CatG activity vs vehicle” value [1, 4] read?
**A.** The value was 92%.

**Q.** What about the “Reduction of CatG activity vs vehicle” value ([1]; QD highest dose (30 mg/kg/day)) of the same molecule?
**A.** The value was 84%.

**Q.** And the “Combined BID and QD percentage reduction, CatG” value [1, 5]?
**A.** The value was 88%.

**Q.** And the “Change From Vehicle Control (%) CatG” value ([1]; oral BID 0.2 mg/kg/day, 16 h post final dose)?
**A.** The value was −1% (p = 0.9993).

**Q.** What about the “Change From Vehicle Control (%) CatG” value ([1]; oral BID 2 mg/kg/day, 16 h post final dose) of the same molecule?
**A.** The value was −36% (p = 0.0165).

**Q.** And the “Change From Vehicle Control (%) CatG” value ([1]; oral BID 20 mg/kg/day, 16 h post final dose)?
**A.** Its value is −92% (p < 0.0001).

**Q.** What about the “Change From Vehicle Control (%) CatG” value ([1]; oral QD 0.3 mg/kg/day, 24 h post final dose) of the same molecule?
**A.** Its value is −2% (p = 0.9983).

**Q.** And the “Change From Vehicle Control (%) CatG” value ([1]; oral QD 3 mg/kg/day, 24 h post final dose)?
**A.** Its value is −39% (p = 0.0058).

**Q.** What about the “Change From Vehicle Control (%) CatG” value ([1]; oral QD 30 mg/kg/day, 24 h post final dose) of the same molecule?
**A.** The value was −84% (p < 0.0001).

**Q.** And the “Reduction of PR3 activity vs vehicle” value [2, 4]?
**A.** The value was 68%.

**Q.** And the “Reduction of PR3 activity vs vehicle” value ([2]; QD highest dose (30 mg/kg/day))?
**A.** The value was 72%.

**Q.** And the “Combined BID and QD percent reduction, PR3” value [2, 5]?
**A.** Its value is 70%.

**Q.** What about the “Change From Vehicle Control (%) PR3” value ([2]; oral BID 0.2 mg/kg/day) of the same molecule?
**A.** The value was “+23% (p = 0.8292)”.

**Q.** And the “Change From Vehicle Control (%) PR3” value ([2]; oral BID 2 mg/kg/day)?
**A.** The value was −31% (p = 0.6727).

**Q.** What about the “Change From Vehicle Control (%) PR3” value ([2]; oral BID 20 mg/kg/day) of the same molecule?
**A.** The value was −68% (p = 0.0907).

**Q.** And the “Change From Vehicle Control (%) PR3” value ([2]; oral QD 0.3 mg/kg/day)?
**A.** Its value is −34% (p = 0.4869).

**Q.** And the “Change From Vehicle Control (%) PR3” value ([2]; oral QD 3 mg/kg/day)?
**A.** Its value is −59% (p = 0.0837).

**Q.** And the “Change From Vehicle Control (%) PR3” value ([2]; oral QD 30 mg/kg/day)?
**A.** The value was −72% (p = 0.0285).

**Q.** And the “Reduction of CatG activity vs vehicle” value [3, 4]?
**A.** The value was 37%.

**Q.** And the “Reduction of CatG activity vs vehicle” value ([3]; QD highest dose (30 mg/kg/day))?
**A.** Its value is 43%.

**Q.** And the “Combined BID and QD percent reduction, CatG” value [3, 5]?
**A.** The value was 40%.

**Q.** And the “Change From Vehicle Control (%) CatG” value ([3]; oral BID 0.2 mg/kg/day)?
**A.** The value was “+4% (p = 0.9857)”.

**Q.** And the “Change From Vehicle Control (%) CatG” value ([3]; oral BID 2 mg/kg/day)?
**A.** The value was “+2% (p = 0.9972)”.

**Q.** What about the “Change From Vehicle Control (%) CatG” value ([3]; oral BID 20 mg/kg/day) of the same molecule?
**A.** Its value is −37% (p = 0.0420).

**Q.** And the “Change From Vehicle Control (%) CatG” value ([3]; oral QD 0.3 mg/kg/day)?
**A.** Its value is −9% (p = 0.9235).

**Q.** And the “Change From Vehicle Control (%) CatG” value ([3]; oral QD 3 mg/kg/day)?
**A.** The value was −13% (p = 0.8203).

**Q.** And the “Change From Vehicle Control (%) CatG” value ([3]; oral QD 30 mg/kg/day)?
**A.** The value was −43% (p = 0.0348).

— article PMC10394516, “The pharmacokinetic profile of brensocatib and its effect on pharmacodynamic biomarkers including NE, PR3, and CatG in various rodent species” (Frontiers in Pharmacology, 2023)
